Reference: the NIST ThermoML archive (doi:10.1007/s10765-016-2109-2)

Assay: molar heat capacity at constant volume
Conditions: Liquid, Vacuum adiabatic calorimetry

CCCCCC[n+]1ccn(C)c1.O=S(=O)([N-]S(=O)(=O)C(F)(F)F)C(F)(F)F
Conditions	molar heat capacity at constant volume [J/K/mol]
325.26 K, Mass density=1344.14 kg/m3	609.39
325.39 K, Mass density=1344.14 kg/m3	608.49
325.51 K, Mass density=1344.14 kg/m3	608.94
325.63 K, Mass density=1344.14 kg/m3	608.49
325.75 K, Mass density=1344.14 kg/m3	609.83
325.88 K, Mass density=1344.14 kg/m3	608.94
326 K, Mass density=1344.14 kg/m3	608.04
326.13 K, Mass density=1344.14 kg/m3	606.7
326.26 K, Mass density=1344.14 kg/m3	608.49
328.58 K, Mass density=1344.14 kg/m3	609.83
328.7 K, Mass density=1344.14 kg/m3	608.49
328.82 K, Mass density=1344.14 kg/m3	607.6
328.94 K, Mass density=1344.14 kg/m3	606.25
329.07 K, Mass density=1344.14 kg/m3	607.15
329.19 K, Mass density=1344.14 kg/m3	609.39
329.31 K, Mass density=1344.14 kg/m3	609.83
329.43 K, Mass density=1344.14 kg/m3	605.36
333.09 K, Mass density=1344.14 kg/m3	612.07
333.21 K, Mass density=1344.14 kg/m3	606.25
333.33 K, Mass density=1344.14 kg/m3	609.39
333.45 K, Mass density=1344.14 kg/m3	613.86
333.57 K, Mass density=1344.14 kg/m3	607.6
333.7 K, Mass density=1344.14 kg/m3	610.73
333.82 K, Mass density=1344.14 kg/m3	613.41
333.94 K, Mass density=1344.14 kg/m3	609.83
341.28 K, Mass density=1344.14 kg/m3	615.2
341.4 K, Mass density=1344.14 kg/m3	610.73
341.52 K, Mass density=1344.14 kg/m3	617.44
341.64 K, Mass density=1344.14 kg/m3	612.96
341.76 K, Mass density=1344.14 kg/m3	620.12
341.88 K, Mass density=1344.14 kg/m3	615.65
342 K, Mass density=1344.14 kg/m3	614.75
342.12 K, Mass density=1344.14 kg/m3	618.78
348.64 K, Mass density=1344.14 kg/m3	619.23
348.76 K, Mass density=1344.14 kg/m3	617.89
348.88 K, Mass density=1344.14 kg/m3	621.91
348.99 K, Mass density=1344.14 kg/m3	620.12
349.11 K, Mass density=1344.14 kg/m3	618.78
349.23 K, Mass density=1344.14 kg/m3	623.7
349.35 K, Mass density=1344.14 kg/m3	617.44
349.47 K, Mass density=1344.14 kg/m3	622.81
349.58 K, Mass density=1344.14 kg/m3	619.68
350.36 K, Mass density=1323.92 kg/m3	625.05
350.41 K, Mass density=1323.92 kg/m3	624.15
350.53 K, Mass density=1323.92 kg/m3	623.26
350.64 K, Mass density=1323.92 kg/m3	622.36
350.76 K, Mass density=1323.92 kg/m3	625.49
350.88 K, Mass density=1323.92 kg/m3	624.6
350.99 K, Mass density=1323.92 kg/m3	621.02
351.11 K, Mass density=1323.92 kg/m3	621.91
351.23 K, Mass density=1323.92 kg/m3	623.26
351.35 K, Mass density=1323.92 kg/m3	620.12
351.46 K, Mass density=1323.92 kg/m3	621.02
351.58 K, Mass density=1323.92 kg/m3	622.36
351.7 K, Mass density=1323.92 kg/m3	620.57
351.82 K, Mass density=1323.92 kg/m3	621.47
351.93 K, Mass density=1323.92 kg/m3	619.68
352.03 K, Mass density=1323.92 kg/m3	621.47
360.03 K, Mass density=1323.92 kg/m3	626.39
360.19 K, Mass density=1323.92 kg/m3	624.15
360.3 K, Mass density=1323.92 kg/m3	628.18
360.42 K, Mass density=1323.92 kg/m3	622.81
360.53 K, Mass density=1323.92 kg/m3	625.05
360.65 K, Mass density=1323.92 kg/m3	622.36
360.76 K, Mass density=1323.92 kg/m3	623.26
360.88 K, Mass density=1323.92 kg/m3	621.02
360.99 K, Mass density=1323.92 kg/m3	621.47
361.11 K, Mass density=1323.92 kg/m3	622.81
361.22 K, Mass density=1323.92 kg/m3	620.57
361.34 K, Mass density=1323.92 kg/m3	627.28
365.26 K, Mass density=1323.92 kg/m3	624.15
365.35 K, Mass density=1323.92 kg/m3	629.52
365.47 K, Mass density=1323.92 kg/m3	627.28
365.58 K, Mass density=1323.92 kg/m3	625.49
365.69 K, Mass density=1323.92 kg/m3	632.65
365.81 K, Mass density=1323.92 kg/m3	622.36
365.92 K, Mass density=1323.92 kg/m3	629.07
366.04 K, Mass density=1323.92 kg/m3	627.28
366.15 K, Mass density=1323.92 kg/m3	630.41
366.27 K, Mass density=1323.92 kg/m3	623.7
366.38 K, Mass density=1323.92 kg/m3	629.97
372.87 K, Mass density=1323.92 kg/m3	635.78
372.96 K, Mass density=1323.92 kg/m3	634.44
373.07 K, Mass density=1323.92 kg/m3	631.76
373.18 K, Mass density=1323.92 kg/m3	633.1
373.29 K, Mass density=1323.92 kg/m3	636.68
373.41 K, Mass density=1323.92 kg/m3	629.07
373.52 K, Mass density=1323.92 kg/m3	634.89
373.63 K, Mass density=1323.92 kg/m3	629.97
373.74 K, Mass density=1323.92 kg/m3	631.31
373.86 K, Mass density=1323.92 kg/m3	638.02
373.97 K, Mass density=1323.92 kg/m3	636.68
374.08 K, Mass density=1323.92 kg/m3	638.92
